# Measurements: patent US20240335425A1, “PHARMACEUTICAL COMPOSITIONS OF ALPHA-2-ADRENERGIC RECEPTOR AGONISTS AND THEIR USE FOR IMPROVING VISION” (Allergan, Inc., priority 2020, published 2024)
# Like-named read-outs stand apart in the source and are kept apart here.
# Legend:
# [1] = target: T1, human alpha-2A receptor (Homo sapiens, UniProt P08913); experiment: FLIPR calcium assay, HEK293 cells with human alpha-2A receptor coupled via chimeric Gqi5; format: cell-based
# T1 construct: expressed in transfected cells
# T1 sequence (P08913 1-465): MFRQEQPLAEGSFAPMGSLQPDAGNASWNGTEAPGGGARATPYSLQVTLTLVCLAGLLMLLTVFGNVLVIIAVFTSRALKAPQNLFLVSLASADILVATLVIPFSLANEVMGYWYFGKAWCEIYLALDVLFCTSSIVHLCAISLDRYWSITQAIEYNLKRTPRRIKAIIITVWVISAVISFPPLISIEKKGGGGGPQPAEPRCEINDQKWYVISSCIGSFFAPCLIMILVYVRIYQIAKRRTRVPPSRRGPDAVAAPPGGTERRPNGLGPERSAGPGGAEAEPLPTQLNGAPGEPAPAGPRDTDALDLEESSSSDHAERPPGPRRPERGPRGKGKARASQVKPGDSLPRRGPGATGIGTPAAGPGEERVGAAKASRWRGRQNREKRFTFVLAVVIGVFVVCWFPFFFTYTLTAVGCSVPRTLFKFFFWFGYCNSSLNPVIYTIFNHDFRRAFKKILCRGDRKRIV
# Method: (§1) An in vitro FLIPR (fluorometric image plate reader) assay was performed on several compounds, including the compound of Formula I (entry 1 in Table 1).
# Specifically, four HEK293 stable cell lines were used in the FLIPR assay. The HEK293 cell line which stably expressed the bovine alpha adrenergic 1A receptor was used to characterize the alpha1 pharmacology. The alpha-2 adrenergic receptor family is a G coupled G-protein receptor. Therefore, in order to use these cell lines in the calcium based FLIPR assay, the chimeric G-protein Gqi5 was used to force the coupling of the human alpha-2A, alpha-2B, and alpha-2C receptors to the calcium pathway. Cells were plated, in triplicate, in poly-D-lysine coated 384-well plates at 25,000 cells per well and grown overnight in DMEM supplemented with 10% fetal bovine serum. For FLIPR evaluation, cells were washed twice with HBSS/HEPES buffer (1× Hanks Buffered Salt Solution, 20 mM HEPES, pH 7.4) prior to the addition of Fluo-4-AM (4 uM Fluo-4-AM, 0.04% pluronic acid in HBSS/HEPES buffer), a calcium-sensitive dye. Cells were loaded with dye for 40 minutes at 37° C., and then washed 4 times with HBSS/HEPES buffer to remove the excess dye. The test compounds were profiled at concentrations between 0.64 nM and 10,000 nM using a […] dilution factor.
# (§2) The receptor activation was initiated by the addition of the appropriate dilutions of compounds and the transient calcium signal was captured. The peak height of the calcium curve was determined and utilized for calculation of EC50 and relative efficacy values using Activity Base software. EC50 was calculated using a 4 Parameter Logistic Equation: y=A+((B−A)/(1+((C/x)^D))) where A and B represents the bottom and top plateau of the curve; C represents the EC50 value; D represents the slope factor; and x and y represent the original x (drug concentration) and y (fluorescence signal, RFU) values.
# [2] = test system: healthy participants; experiment: Clinical Study 1 in healthy individuals, single ascending dose; format: in vivo, human; conditions: left eye, 0.01% to 0.1% (w/v)
# Source text: In this study, 36 healthy participants (male and female; 40 to 65 years of age) are randomized to participate in single-ascending dose cohorts (designated Cohorts 1, 2, and 3 as shown in Table 9 below) to evaluate safety, tolerability, pharmacokinetics, and target engagement of the compound of Formula I. In each cohort of this study 12 participants are randomized in a 3:1 ratio to receive an ophthalmic solution containing the compound of Formula I (9 participants) or vehicle (3 participants). Participants that are randomized to receive the ophthalmic solution containing the compound of Formula I are administered a single drop of the ophthalmic solution containing the compound of Formula I at doses ranging from 0.01% (w/v) to 0.1% (w/v) (Formulations A-C; see Examples 8-10), with the option of also using a 0.3% (w/v) dose (Formulation D; see Example 11), in the left eye, as indicated in Table 7 below (“SD” means single dose and “OS” means left eye).
# Each participant is admitted to the study site on the evening before dosing (Day −1). […]
# Safety and tolerability are evaluated by monitoring participants in the three cohorts of this study for exhibition/reporting of adverse events and monitoring characteristics/assessments such as vital signs, electrocardiogram measurements, clinical laboratory assessments, study intervention tolerability and drop comfort assessments, intraocular pressure measurements, slit-lamp biomicroscopy, and dilated funduscopic examination. Systemic and local pharmacokinetics of the compound of Formula I are evaluated by measuring plasma and tear concentrations of the compound of Formula I in the participants and also determining pharmacokinetic parameters such as area under the curve, clearance, half-life, maximum concentration, time to maximum concentration. Target engagement is measured by measuring the pupil size of the participants during the study. […]
# [3] = test system: Dutch Belted rabbits; experiment: In vivo rabbit miosis model (pupil diameter after single topical dose); conditions: for animals with greater than 2.5 mm reduction in pupil size from baseline: 0.1% w:v, scotopic (<10 lux), n=6; for miotic efficacy compared with other alpha adrenergic receptor agonists: low-light conditions (2-10 Lux)
# Method: Female Dutch Belted rabbits (Covance, Princeton, New Jersey) weighing between 2-4 kg were used for these studies. […] For topical dosing, eye drops (volume=35 μl) were instilled into the lower conjunctival sac of the test eye.
# Pupil diameter was measured in both the treated and untreated eye with an Optistick to the nearest 0.5 mm. […]
# [4] = Method: Aliquots of the PBS only curve were quenched at time zero to be used as stability controls and calibration standards. Following centrifugation, samples were analyzed by LC-MS/MS bioanalysis. Back-calculated concentrations using the assay PBS curve were used for binding and stability calculations.
# [5] = test system: participants diagnosed with presbyopia; experiment: Clinical Study 2 in presbyopes, once daily for 14 days; format: in vivo, human
# Source text: In this study, approximately 108 participants diagnosed with presbyopia (male and female; 40 to 65 years of age) are selected to participate.
# Cohorts 4, 5, and 6 (Part A) are multiple ascending dose cohorts in which participants are randomized to receive either the compound of Formula I at doses ranging from 0.01% to 0.1% or vehicle once daily in both eyes for 14 days. Each cohort in Part A consists of 9 participants who receive active intervention (the compound of Formula I) and 3 participants that receive vehicle in order to evaluate safety, tolerability, pharmacokinetics, and clinical efficacy of the compound of Formula I. As with Example 8, after each cohort is completed, the independent data monitoring committee reviews the safety, pharmacokinetic, and target engagement data to determine if it is acceptable to proceed to the next planned dosing cohort. The dose of the compound of Formula I in Part B (Cohorts 7 and 8) is selected by the data monitoring committee after Cohort 6 has completed.
# Cohort 7 is a single-masked, active comparator cohort that includes approximately 60 masked participants with presbyopia randomized 1:1 to receive either pilocarpine 1.25% (w/v) ophthalmic solution or an ophthalmic solution of the compound of Formula I administered at the dose strength recommended by the data monitoring committee for 14 days. Safety, tolerability, and efficacy is assessed after topical ocular administration of the compound of Formula I compared with pilocarpine 1.25%. Common adverse events associated with pilocarpine (particularly when administered to the eye) include, for example, headache, brow ache, accommodative change, eye irritation, eye pain, blurred vision, visual impairment, ocular blurring, ocular discomfort, blurry vision, light sensitivity, stinging, and itching.
# Cohort 8 is a cohort to evaluate safety, tolerability, pharmacokinetics, and efficacy of the compound of Formula I administered at the dose strength recommended by the data monitoring committee compared with vehicle for 14 days in participants with presbyopia who wear contact lenses (9 participants receive the compound of Formula I and 3 participants receive vehicle).
# In all cohorts of this study (Cohorts 4 to 8), participants receive their first dose in clinic on Day 1, and stay in clinic for safety, pharmacokinetic, and efficacy evaluations for 10 hours post-dose. The participants then return for dosing and safety evaluations once daily from Day 2 to Day 7. They then receive multidose bottles for single unit of use for at-home dosing from Days 8 to 13 and return to the clinic on Day 14 for dosing as well as safety, tolerability, pharmacokinetic (Cohorts 4 to 6, and 8 only), and efficacy evaluations for 10 hours post-dose. On Day 30, participants return for a safety follow-up and close out visit.
# In Parts A and B of this study, safety and tolerability are evaluated as in Example 12 (i.e. by monitoring participants in the three cohorts for exhibition/reporting of adverse events and monitoring the characteristics/assessments as are monitored in Example 12), with the additional characteristics/assessments of contrast sensitivity, photopic (e.g. ≥80 cd/m^2; 251 lux at target) and mesopic (e.g. 3.2 to 3.5 cd/m^2; 10 to 11 lux at target) high contrast corrected distance visual acuity (each eye and binocularly), manifest refraction (mesopic and photopic) also being measured in Part A. Systemic and local pharmacokinetics of the compound of Formula I are evaluated by measuring plasma and tear concentrations of the compound of Formula I in the participants and also determining pharmacokinetic parameters as is done in Example 12. Target engagement is measured by measuring the pupil size of the participants during the study as is done in Example 12. […]
# [6] = target: T2, bovine alpha adrenergic 1A receptor (Bos taurus, UniProt P18130); experiment: FLIPR calcium assay, HEK293 cells stably expressing bovine alpha 1A receptor; format: cell-based; conditions: HEK293 stable cell line, peak calcium signal; read-out: bovine alpha1A EC50 (nm)
# T2 construct: expressed in transfected cells
# T2 sequence (P18130 1-466): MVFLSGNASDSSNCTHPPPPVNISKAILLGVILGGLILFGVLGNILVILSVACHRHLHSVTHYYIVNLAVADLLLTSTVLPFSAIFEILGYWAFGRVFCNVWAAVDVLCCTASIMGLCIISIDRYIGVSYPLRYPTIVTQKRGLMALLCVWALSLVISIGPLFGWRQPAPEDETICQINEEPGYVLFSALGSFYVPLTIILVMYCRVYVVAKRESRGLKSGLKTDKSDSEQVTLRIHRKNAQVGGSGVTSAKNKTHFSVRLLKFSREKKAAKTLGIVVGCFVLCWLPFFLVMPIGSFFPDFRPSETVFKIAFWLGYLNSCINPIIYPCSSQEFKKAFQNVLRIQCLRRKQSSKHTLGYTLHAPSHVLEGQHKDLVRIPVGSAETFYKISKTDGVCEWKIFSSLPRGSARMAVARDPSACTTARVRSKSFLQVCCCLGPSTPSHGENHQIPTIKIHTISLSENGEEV
# Method: as §1
# Specifically, four HEK293 stable cell lines were used in the FLIPR assay. The HEK293 cell line which stably expressed the bovine alpha adrenergic 1A receptor was used to characterize the alpha1 pharmacology. The alpha-2 adrenergic receptor family is a G coupled G-protein receptor. Therefore, in order to use these cell lines in the calcium based FLIPR assay, the chimeric G-protein Gqi5 was used to force the coupling of the human alpha-2A, alpha-2B, and alpha-2C receptors to the calcium pathway. […]
# as §2
# [7] = test system: presbyopic patients; conditions: different lighting conditions; cited from earlier work
# [8] = HEK293 stable cell line with Gqi5, peak calcium signal, read-out: human alpha2A EC50 (nm)
# [9] = Part A, bilaterally for 14 days
# [10] = Part B, Cohort 8, contact lens wearers, 14 days
compound,measurement,setting,value
Cc1c(N=C2NCCN2)ccc2[nH]cnc12 [Compound 1],EC50,[1]; [8],0.7 nM
same,pupil diameter compared with vehicle,[2],decrease in pupil diameter
same,safety and tolerability,[2],acceptable safety and tolerability profiles
same,systemic exposures,[2],sufficient safety margins
same,animals with greater than 2.5 mm reduction in pupil size from baseline,[3]; after 6 hours,more than half
same,animals with greater than 2.5 mm reduction in pupil size from baseline,[3]; two hours after dosing,virtually all animals
same,miotic action (peak pupil constriction and duration),"[3]; room lighting conditions, versus brimonidine",greater miotic action than brimonidine
same,effect on pupil constriction compared to Compound 3,[3]; topical dose,greater effect on pupil constriction
same,pupil constriction at 9 hours after dosing,"[3]; topical dose, 9 hours",significant pupil constriction
same,miotic efficacy compared with other alpha adrenergic receptor agonists,[3]; topical dose,best miotic effect
same,melanin binding (in words),[4],no significant melanin binding
same,depth of focus compared with vehicle,[5]; [9],improved depth of focus
same,distance corrected near visual acuity compared with vehicle,[5]; [9],numeric improvement (e.g. two or three lines)
same,patient reported outcome questionnaires/questions compared with vehicle,[5]; [9],more positive answers
same,pupil diameter compared with vehicle,[5]; [9],decrease in pupil diameter
same,systemic exposures,[5]; [9],sufficient safety margins
same,safety and tolerability,"[5]; Part A, bilaterally for 14 days, 0.01% to 0.1%",acceptable (or improved) safety and tolerability profiles
same,safety and tolerability compared with 1.25% (w/v) pilocarpine,"[5]; Part B, Cohort 7",acceptable (or improved
same,depth of focus compared with vehicle,[5]; [10],improved depth of focus
same,distance corrected near (and/or intermediate) visual acuity compared with vehicle,[5]; [10],numeric improvement (e.g. two or three lines)
same,patient reported outcome questionnaires/questions compared with vehicle,[5]; [10],more positive answers
same,safety and tolerability,"[5]; Part B, both cohorts, bilaterally for 14 days",acceptable safety and tolerability profiles
same,EC50,[6],286 nM
"CCc1c(N=C2NCCN2)ccc2[nH]cnc12 [Compound 2, reference compound]",EC50,[1],11 nM
same,miotic efficacy compared with other alpha adrenergic receptor agonists,[3]; topical dose,much less than brimonidine
"Brc1c(N=C2NCCN2)ccc2[nH]cnc12 [Compound 3, reference compound]",EC50,[1]; [8],1 nM
same,miotic efficacy compared with other alpha adrenergic receptor agonists,[3]; topical dose,much less than brimonidine
"Brc1c(NC2=NCCN2)ccc2nccnc12 [Compound 4, brimonidine, reference compound]",animals with greater than 2.5 mm reduction in pupil size from baseline,[3]; after 6 hours,virtually none of the animals
same,animals with greater than 2.5 mm reduction in pupil size from baseline,[3]; half hour after dosing,much less than half of the animals
same,melanin binding (in words),[4],much more significant binding
same,average pupil size after brimonidine,[7],3.4 mm
same,EC50,[6],1200 nM
